{
  "source": "patent US20170081724A1",
  "about": "“METHOD AND KITS FOR DETERMINING SENSITIVITY TO CANCER TREATMENT” (Dana-Farber Cancer Institute, Inc., priority 2014, published 2017)",
  "test_system": "ERCC2-deficient fibroblast cell line (GM08207) expressing GFP, WT ERCC2 or mutant ERCC2",
  "experiment": "Cisplatin sensitivity assay (CellTiter-Glo survival, 120 hours)",
  "type": "cell-based, human",
  "experimental": "The expression plasmids harboring WT ERCC2, GFP (negative control), or mutant ERCC2s were expanded in E. coli TOP10 cells (Invitrogen) and purified using an anion exchange kit (Qiagen). Lentiviruses were propagated in 293T cells by cotransfection of the expression plasmid with plasmids encoding viral packaging and envelope proteins. Unless otherwise noted, all human cell lines were cultured in Dulbecco's Modified Eagle's Medium (Invitrogen) supplemented with 10% fetal bovine serum (Sigma) and 1% L-glutamine and grown at 37° C. and 5% CO2. The 293T cell supernatants containing virus were collected after 48 hours, filtered twice (0.45 μm syringe filter, Millipore), then added directly to growing cultures of an SV40-transformed pseudodiploid ERCC2-deficient fibroblast cell line derived from an XP patient of genetic complementation group D (GM08207; Coriell Institute). Polybrene® (Sigma) was added to a final concentration of 8 μg/ml to increase the efficiency of infection. […]\nCells were transferred to 96-well plates at a density of 500 cells per well. […] After 120 hours, CellTiter-Glo reagent (Promega) was added to the wells and the plates were scanned using a luminescence microplate reader (BioTek). […] IC50 concentrations were calculated using a four parameter sigmoidal model and plots were generated using Prism (GraphPad). […]",
  "data": [
    {"molecule": "N.N.[Cl][Pt][Cl]", "note": "[cisplatin]", "values": [
      {"measurement": "cisplatin IC50", "setting": "WT ERCC2 complemented cell line compared with ERCC2-deficient parent cell line, P=0.0003, ANOVA", "value": "significantly higher"},
      {"measurement": "cisplatin IC50", "setting": "each mutant ERCC2 cell line (five mutants) compared with parent ERCC2-deficient cell line", "value": "not significantly different"}
    ]}
  ]
}
